In ChEMBL document CHEMBL1201862, “PubChem BioAssay data set” (2004):
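96-well plates; 48 h exposure; 5 concentrations. Endpoints by linear interpolation between flanking doses. Not reached: highest tested concentration assigned. Here, GI50 denotes the concentration required for 50% inhibition of growth.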 Activity calls are given as the source filed them. Rule as the data show it: active = GI50 up to about 1.1 µM and inactive = higher.

Tests used:
Assay in all cases: inhibition of tumour cell growth, NCI panel, 48 h
[1] = system: OVCAR-3
[2] = system: SNB-75
[3] = system: SK-MEL-2
[4] = system: SK-MEL-28
[5] = system: TK-10
[6] = system: DU-145
[7] = system: SK-MEL-5
[8] = system: KM12
[9] = system: SF-295
[10] = system: UACC-257
[11] = system: A498
[12] = system: M14
[13] = system: HCC 2998
[14] = system: MDA-N
[15] = system: NCI-H522
[16] = system: UO-31
[17] = system: HOP-92
[18] = system: MOLT-4
[19] = system: T47D
[20] = system: NCI-H460

Row | Compound | GI50 [1] | GI50 [2] | GI50 [3] | GI50 [4] | GI50 [5] | GI50 [6] | GI50 [7] | GI50 [8] | GI50 [9] | GI50 [10] | GI50 [11] | GI50 [12] | GI50 [13] | GI50 [14] | GI50 [15] | GI50 [16] | GI50 [17] | GI50 [18] | GI50 [19] | GI50 [20]
1 | CCc1[nH]nc(C(N)=O)c1/N=N/N(C)C | > 100 µM (inactive) | 65.9 µM (inactive) | > 100 µM (inactive) | > 100 µM (inactive) | > 100 µM (inactive) | 46.2 µM (inactive) | 70 µM (inactive) | 56.5 µM (inactive) | 39.7 µM (inactive) | > 100 µM (inactive) | > 100 µM (inactive) | > 100 µM (inactive) | > 100 µM (inactive) | > 100 µM (inactive) | 37.3 µM (inactive) | 2.58 µM (inactive) | 36.4 µM (inactive) | 6.46 µM (inactive) | 68.4 µM (inactive) | –
2 | O=C1/C(=C\c2cccc(Oc3ccccc3)c2)SC(c2ccccc2)N1c1ccccc1Cl (centres undefined) | 23.7 µM (inactive) | – | 27.9 µM (inactive) | 41.2 µM (inactive) | 34.8 µM (inactive) | 32.9 µM (inactive) | 15.1 µM (inactive) | 23 µM (inactive) | 33.8 µM (inactive) | 24.5 µM (inactive) | 46.1 µM (inactive) | 30.8 µM (inactive) | 17.5 µM (inactive) | 20 µM (inactive) | 13.6 µM (inactive) | 31 µM (inactive) | 14.6 µM (inactive) | 34.8 µM (inactive) | 27.7 µM (inactive) | 29.6 µM (inactive)
3 | C/C(=N\Nc1nc2ccccc2s1)c1ccncn1 | 0.366 µM (active) | 4.1 µM (inactive) | 8.09 µM (inactive) | 2 µM (inactive) | – | 3.54 µM (inactive) | 0.621 µM (active) | 1.42 µM (inactive) | 3.31 µM (inactive) | 0.719 µM (active) | > 100 µM (inactive) | 0.51 µM (active) | 4.88 µM (inactive) | 9.44 µM (inactive) | 0.12 µM (active) | 0.387 µM (active) | 0.817 µM (active) | 0.145 µM (active) | 0.612 µM (active) | 0.438 µM (active)
4 | Nc1ncnc2c(C3OC(CO)C(O)C3O)c[nH]c12 (centres undefined) | – | 0.00328 µM (active) | 0.01 µM (active) | < 0.0218 µM (active) | 0.0705 µM (active) | 0.006 µM (active) | 0.00564 µM (active) | 0.00533 µM (active) | 0.01 µM (active) | 0.0185 µM (active) | 0.0213 µM (active) | 0.0123 µM (active) | 0.00621 µM (active) | 0.0131 µM (active) | 0.00614 µM (active) | 0.00426 µM (active) | < 0.015 µM (active) | 0.00336 µM (active) | 0.00405 µM (active) | 0.00269 µM (active)
5 | O=c1c2cccnc2[nH]c2ccc3scnc3c12 | 4.28 µM (inactive) | 6.31 µM (inactive) | > 10 µM (inactive) | > 10 µM (inactive) | 4.86 µM (inactive) | > 10 µM (inactive) | 7.01 µM (inactive) | 6.7 µM (inactive) | > 10 µM (inactive) | > 10 µM (inactive) | 7.62 µM (inactive) | 8.07 µM (inactive) | > 10 µM (inactive) | > 10 µM (inactive) | > 10 µM (inactive) | – | 8.17 µM (inactive) | 4.34 µM (inactive) | > 10 µM (inactive) | 7.01 µM (inactive)
6 | N=C(N)SC(c1ccccc1)c1ccccc1 | 14.2 µM (inactive) | – | 15 µM (inactive) | 4.84 µM (inactive) | 14.5 µM (inactive) | 12.2 µM (inactive) | 17.3 µM (inactive) | 16.2 µM (inactive) | 16.9 µM (inactive) | 14.2 µM (inactive) | 17.3 µM (inactive) | 11.4 µM (inactive) | 6.18 µM (inactive) | 13.6 µM (inactive) | 13.2 µM (inactive) | 11.2 µM (inactive) | 6.87 µM (inactive) | 15.7 µM (inactive) | 6.32 µM (inactive) | 16.6 µM (inactive)
